What was measured:
[1] = Metabolic stability in human liver microsomes; details: 1 µM compound; for CLblood, human microsomes: hepatic in vivo blood clearance calculated with well stirred liver model, '(stable)' given beside < 0.01; for Fmax, human microsomes: maximal oral bioavailability calculated with well stirred liver model, 0.5 mg/mL protein, '(stable)' given beside 100
human IRAK4 = molecular target: T1, human IRAK4 (Homo sapiens, UniProt Q9NWZ3); assay: Human IRAK4 kinase activity inhibition assay (IRAK4 TR-FRET assay); format: biochemical; details: 1 mM ATP, GST-human IRAK4, average or median values
T1 construct: GST (N); made in house; host or cells: baculovirus-infected Hi5 (BTI-TN-5B1-4) insect cells
T1 sequence (Q9NWZ3 1-460): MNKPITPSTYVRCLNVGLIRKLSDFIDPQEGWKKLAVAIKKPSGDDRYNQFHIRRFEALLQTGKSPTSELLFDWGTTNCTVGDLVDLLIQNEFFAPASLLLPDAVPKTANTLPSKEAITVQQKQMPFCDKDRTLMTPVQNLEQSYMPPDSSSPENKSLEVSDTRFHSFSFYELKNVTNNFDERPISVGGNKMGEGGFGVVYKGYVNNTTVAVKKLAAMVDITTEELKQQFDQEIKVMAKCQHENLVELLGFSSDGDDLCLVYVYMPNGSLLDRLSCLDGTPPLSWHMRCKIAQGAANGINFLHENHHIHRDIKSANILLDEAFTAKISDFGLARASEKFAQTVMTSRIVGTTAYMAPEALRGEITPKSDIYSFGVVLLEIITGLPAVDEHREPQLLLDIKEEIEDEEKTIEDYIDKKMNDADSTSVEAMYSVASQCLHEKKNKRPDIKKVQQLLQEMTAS
Procedure, shortened: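 GST-IRAK4 from insect cells (about 0.2 nM, linear range) was preincubated 15 min with compound (11 concentrations, 20 µM–0.073 nM) in HEPES pH 7.5 with MgCl2 and DTT before kinase reaction on a biotinylated peptide. Phosphopeptide was detected by TR-FRET (Eu anti-mouse-IgG/anti-phosphoserine/streptavidin-XL665, 1 h at 22°C) as the 665/620 nm ratio, normalized to no-compound and no-enzyme controls.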

Row | Compound | CLblood, human microsomes [1] | Fmax, human microsomes [1] | IC50 (human IRAK4)
1 | C[C@H]1CN(c2nc(N[C@H]3C[C@H](S(C)(=O)=O)C3)nc3c2cnn3-c2cccc(C(F)F)c2)C[C@@H]1O (single isomer, unassigned) [II-17-2, (3R*,4S*)-1-(1-[3-(difluoromethyl)phenyl]-6-{[trans-3-(methylsulfonyl)cyclobutyl]amino}-1H-pyrazolo[3,4-d]pyrimidin-4-yl)-4-methylpyrrolidin-3-ol] | 0.28 L/h/kg | 79% | 2.1 nM
2 | CCC1(O)CN(c2nc(N[C@@H]3CNC(=O)C3)nc3c2cnn3-c2cccc(C(F)(F)F)c2)C1 [Example I-3-1, (4S)-4-({4-(3-ethyl-3-hydroxyazetidin-1-yl)-1-[3-(trifluoromethyl)phenyl]-1H-pyrazolo[3,4-d]pyrimidin-6-yl}amino)pyrrolidin-2-one] | 0.46 L/h/kg | 65% | 9.76 nM
3 | CC(C)(O)C1CCN(c2nc(N[C@@H]3CCOC3)nc3c2cnn3-c2cccc(C(F)(F)F)c2)CC1 [Example I-16-2, 2-(1-{6-[(3R)-tetrahydrofuran-3-ylamino]-1-[3-(trifluoromethyl)phenyl]-1H-pyrazolo[3,4-d]pyrimidin-4-yl}piperidin-4-yl)propan-2-ol] | 0.92 L/h/kg | 30% | 16.1 nM
4 | O=S1(=O)CC[C@@H](Nc2nc(N3CC(N4CCOCC4)C3)c3cnn(-c4cccc(C(F)(F)F)c4)c3n2)C1 [Example I-22, N-[(3R)-1,1-dioxidotetrahydrothiophen-3-yl]-4-[3-(morpholin-4-yl)azetidin-1-yl]-1-[3-(trifluoromethyl)phenyl]-1H-pyrazolo[3,4-d]pyrimidin-6-amine] | 0.34 L/h/kg | 74% | 99.3 nM
5 | O=C1C[C@H](Nc2nc(N3CCC(N4CCOCC4)CC3)c3cnn(-c4cccc(C(F)(F)F)c4)c3n2)CN1 [Example I-27, (4S)-4-({4-[4-(morpholin-4-yl)piperidin-1-yl]-1-[3-(trifluoromethyl)phenyl]-1H-pyrazolo[3,4-d]pyrimidin-6-yl}amino)pyrrolidin-2-one] | 0.17 L/h/kg | 87% | 7.01 nM
6 | CC(C)(O)C1CCN(c2nc(N[C@H]3CC[C@@H](O)C3)nc3c2cnn3-c2cccc(C(F)(F)F)c2)CC1 [Example I-29, (1R,3S)-3-({4-[4-(2-hydroxypropan-2-yl)piperidin-1-yl]-1-[3-(trifluoromethyl)phenyl]-1H-pyrazolo[3,4-d]pyrimidin-6-yl}amino)cyclopentanol] | 0.43 L/h/kg | 68% | 10.8 nM
7 | CC1(O)CCN(C2CN(c3nc(N[C@@H]4CNC(=O)C4)nc4c3cnn4-c3cccc(C(F)(F)F)c3)C2)CC1 [Example I-30, (4S)-4-({4-[3-(4-hydroxy-4-methylpiperidin-1-yl)azetidin-1-yl]-1-[3-(trifluoromethyl)phenyl]-1H-pyrazolo[3,4-d]pyrimidin-6-yl)amino)pyrrolidin-2-one] | < 0.01 (stable) L/h/kg | 100 (stable) % | 6.15 nM
8 | CN1CC[C@H](Nc2nc(N3C[C@@H](O)[C@H](O)C3)c3cnn(-c4cccc(C(F)(F)F)c4)c3n2)C1 [Example I-31, (3R,4R)-1-(6-{[(3S)-1-methylpyrrolidin-3-yl]amino}-1-[3-(trifluoromethyl)phenyl]-1H-pyrazolo[3,4-d]pyrimidin-4-yl)pyrrolidine-3,4-diol] | < 0.01 (stable) L/h/kg | 100 (stable) % | 12.6 nM
9 | CC(C)(N)C1CN(c2nc(NC3CCS(=O)(=O)CC3)nc3c2cnn3-c2cccc(C(F)(F)F)c2)C1 [Example I-45, 4-[3-(2-aminopropan-2-yl)azetidin-1-yl]-N-(1,1-dioxidotetrahydro-2H-thiopyran-4-yl)-1-[3-(trifluoromethyl)phenyl]-1H-pyrazolo[3,4-d]pyrimidin-6-amine] | 0.05 L/h/kg | 96% | 5.1 nM
10 | CC(C)(N)C1CCN(c2nc(NC3CCS(=O)(=O)CC3)nc3c2cnn3-c2cccc(C(F)(F)F)c2)CC1 [Example I-46, 4-[4-(2-aminopropan-2-yl)piperidin-1-yl]-N-(1,1-dioxidotetrahydro-2H-thiopyran-4-yl)-1-[3-(trifluoromethyl)phenyl]-1H-pyrazolo[3,4-d]pyrimidin-6-amine] | 0.25 L/h/kg | 81% | 1.4 nM
11 | CC(C)(N)C1CCN(c2nc(N[C@@H]3CNC(=O)C3)nc3c2cnn3-c2cccc(C(F)(F)F)c2)CC1 [Example I-47, (4S)-4-({4-[4-(2-aminopropan-2-yl)piperidin-1-yl]-1-[3-(trifluoromethyl)phenyl]-1H-pyrazolo[3,4-d]pyrimidin-6-yl}amino)pyrrolidin-2-one] | 0.17 L/h/kg | 87% | 0.861 nM
12 | NC1(C2CCN(c3nc(N[C@@H]4CNC(=O)C4)nc4c3cnn4-c3cccc(C(F)(F)F)c3)CC2)CC1 [Example I-48, (4S)-4-({4-[4-(1-aminocyclopropyl)piperidin-1-yl]-1-[3-(trifluoromethyl)phenyl]-1H-pyrazolo[3,4-d]pyrimidin-6-yl}amino)pyrrolidin-2-one] | < 0.01 (stable) L/h/kg | 100 (stable) % | 1.12 nM
13 | CC(C)(O)CC1CN(c2nc(N[C@@H]3CNC(=O)C3)nc3c2cnn3-c2cccc(C(F)(F)F)c2)C1 [Example I-49, (4S)-4-({4-[3-(2-hydroxy-2-methylpropyl)azetidin-1-yl]-1-[3-(trifluoromethyl)phenyl]-1H-pyrazolo[3,4-d]pyrimidin-6-yl}amino)pyrrolidin-2-one] | 0.13 L/h/kg | 90% | 3.85 nM
14 | O=C1C[C@H](Nc2nc(N3CC(CC(=O)N4CCOCC4)C3)c3cnn(-c4cccc(C(F)(F)F)c4)c3n2)CN1 [Example I-51, (4S)-4-[(4-{3-[2-(morpholin-4-yl)-2-oxoethyl]azetidin-1-yl}-1-[3-(trifluoromethyl)phenyl]-1H-pyrazolo[3,4-d]pyrimidin-6-yl)amino]pyrrolidin-2-one] | 0.25 L/h/kg | 81% | 2.5 nM
15 | C[C@]1(N)C[C@@H](Nc2nc(N3CCOCC3)c3cnn(-c4cccc(C(F)(F)F)c4)c3n2)C1 [Example I-58, cis-1-methyl-N^3-{4-(morpholin-4-yl)-1-[3-(trifluoromethyl)phenyl]-1H-pyrazolo[3,4-d]pyrimidin-6-yl}cyclobutane-1,3-diamine] | < 0.01 (stable) L/h/kg | 100 (stable) % | 23 nM
16 | CC1(N2CCOCC2)CN(c2nc(N[C@H]3C[C@H](S(C)(=O)=O)C3)nc3c2cnn3-c2cccc(C(F)(F)F)c2)C1 [Example I-59, 4-[3-methyl-3-(morpholin-4-yl)azetidin-1-yl]-N-[trans-3-(methylsulfonyl)cyclobutyl]-1-[3-(trifluoromethyl)phenyl]-1H-pyrazolo[3,4-d]pyrimidin-6-amine] | 0.34 L/h/kg | 74% | 3.63 nM
17 | O=S1(=O)CCC(Nc2nc(N3CC(CN4CCOCC4)C3)c3cnn(-c4cccc(C(F)(F)F)c4)c3n2)CC1 [Example I-60, N-(1,1-dioxidotetrahydro-2H-thiopyran-4-yl)-4-[3-(morpholin-4-ylmethyl)azetidin-1-yl]-1-[3-(trifluoromethyl)phenyl]-1H-pyrazolo[3,4-d]pyrimidin-6-amine] | 0.37 L/h/kg | 72% | 34.2 nM
18 | NC1(C2CCN(c3nc(NC4CCS(=O)(=O)CC4)nc4c3cnn4-c3cccc(C(F)(F)F)c3)CC2)CC1 [Example I-62, 4-[4-(1-aminocyclopropyl)piperidin-1-yl]-N-(1,1-dioxidotetrahydro-2H-thiopyran-4-yl)-1-[3-(trifluoromethyl)phenyl]-1H-pyrazolo[3,4-d]pyrimidin-6-amine] | < 0.01 (stable) L/h/kg | 100 (stable) % | 2.57 nM
19 | CC(C)(O)C1CCN(c2nc(N[C@H]3CN4CCC3CC4)nc3c2cnn3-c2cccc(C(F)(F)F)c2)CC1 [Example I-64-1, 2-(1-{6-[(3R)-1-azabicyclo[2.2.2]octan-3-ylamino]-1-[3-(trifluoromethyl)phenyl]-1H-pyrazolo[3,4-d]pyrimidin-4-yl}piperidin-4-yl)propan-2-ol] | 0.32 L/h/kg | 76% | 8.58 nM
